# According to PubChem BioAssay (NCI):
#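 Five compound concentrations were applied to cells in 96-well plates for 48 hours; endpoints were derived by simple linear interpolation of the resulting dose-response curve. The concentration for full growth arrest is given as TGI.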
# Legend:
# Experiment in all cases: inhibition of tumour cell growth, NCI panel, 48 h
# 786-0 renal = test system: 786-0 renal
# NCI-H522 lung = test system: NCI-H522 lung
# SW-620 colon = test system: SW-620 colon
# SK-MEL-5 melanoma = test system: SK-MEL-5 melanoma
# SF-268 CNS = test system: SF-268 CNS
# K-562 leukemia = test system: K-562 leukemia
# MDA-MB-435 = test system: MDA-MB-435
# HCT-116 colon = test system: HCT-116 colon
# RPMI-8226 leukemia = test system: RPMI-8226 leukemia
# SR leukemia = test system: SR leukemia
# SNB-19 CNS = test system: SNB-19 CNS
# DU-145 prostate = test system: DU-145 prostate
# M14 melanoma = test system: M14 melanoma
# MCF7 breast = test system: MCF7 breast
# MDA-MB-231 breast = test system: MDA-MB-231 breast
# HT29 colon = test system: HT29 colon
# HOP-62 NSCLC = test system: HOP-62 NSCLC
# UACC-62 melanoma = test system: UACC-62 melanoma
# ACHN renal = test system: ACHN renal
# HCC-2998 colon = test system: HCC-2998 colon
# LOX IMVI melanoma = test system: LOX IMVI melanoma
# NCI-H23 lung = test system: NCI-H23 lung
# MOLT-4 leukemia = test system: MOLT-4 leukemia
# IGROV1 ovarian = test system: IGROV1 ovarian
# SNB-75 CNS = test system: SNB-75 CNS
# U251 CNS = test system: U251 CNS
# A549 NSCLC = test system: A549 NSCLC
# OVCAR-8 ovarian = test system: OVCAR-8 ovarian
# EKVX NSCLC = test system: EKVX NSCLC
# MDA-N = test system: MDA-N
# OVCAR-3 ovarian = test system: OVCAR-3 ovarian
# UACC-257 melanoma = test system: UACC-257 melanoma
# OVCAR-5 ovarian = test system: OVCAR-5 ovarian
# TK-10 renal = test system: TK-10 renal
# UO-31 renal = test system: UO-31 renal
# CCRF-CEM leukemia = test system: CCRF-CEM leukemia
# HCT-15 colon = test system: HCT-15 colon
# KM12 colon = test system: KM12 colon
# RXF 393 renal = test system: RXF 393 renal
# SK-MEL-2 melanoma = test system: SK-MEL-2 melanoma
# SN12C renal = test system: SN12C renal
# OVCAR-4 ovarian = test system: OVCAR-4 ovarian
# PC-3 prostate = test system: PC-3 prostate
# SK-OV-3 ovarian = test system: SK-OV-3 ovarian
# BT-549 breast = test system: BT-549 breast
# HOP-92 NSCLC = test system: HOP-92 NSCLC
# SF-295 CNS = test system: SF-295 CNS
# COLO 205 colon = test system: COLO 205 colon
# SF-539 CNS = test system: SF-539 CNS
# NCI/ADR-RES ovarian = test system: NCI/ADR-RES ovarian
# NCI-H460 lung = test system: NCI-H460 lung
# HL-60(TB) leukemia = test system: HL-60(TB) leukemia
# HS 578T breast = test system: HS 578T breast
# CAKI-1 renal = test system: CAKI-1 renal
# MALME-3M melanoma = test system: MALME-3M melanoma
# NCI-H226 lung = test system: NCI-H226 lung
# A498 renal = test system: A498 renal
# SK-MEL-28 melanoma = test system: SK-MEL-28 melanoma
# T-47D breast = test system: T-47D breast
structure (smiles),measurement,setting,value
CCOC(=O)N/N=C(\Cc1ccccc1)OCC,TGI,786-0 renal,> 100 µM
same,TGI,NCI-H522 lung,> 100 µM
same,TGI,SW-620 colon,> 100 µM
same,TGI,SK-MEL-5 melanoma,> 100 µM
same,TGI,SF-268 CNS,> 100 µM
same,TGI,K-562 leukemia,> 100 µM
same,TGI,MDA-MB-435,> 100 µM
same,TGI,HCT-116 colon,> 100 µM
same,TGI,RPMI-8226 leukemia,> 100 µM
same,TGI,SR leukemia,> 100 µM
same,TGI,SNB-19 CNS,> 100 µM
same,TGI,DU-145 prostate,> 100 µM
same,TGI,M14 melanoma,> 100 µM
same,TGI,MCF7 breast,> 100 µM
same,TGI,MDA-MB-231 breast,> 100 µM
same,TGI,HT29 colon,> 100 µM
same,TGI,HOP-62 NSCLC,> 100 µM
same,TGI,UACC-62 melanoma,> 100 µM
same,TGI,ACHN renal,> 100 µM
same,TGI,HCC-2998 colon,> 100 µM
same,TGI,LOX IMVI melanoma,> 100 µM
same,TGI,NCI-H23 lung,> 100 µM
same,TGI,MOLT-4 leukemia,> 100 µM
same,TGI,IGROV1 ovarian,> 100 µM
same,TGI,SNB-75 CNS,> 100 µM
same,TGI,U251 CNS,> 100 µM
same,TGI,A549 NSCLC,> 100 µM
same,TGI,OVCAR-8 ovarian,> 100 µM
same,TGI,EKVX NSCLC,> 100 µM
same,TGI,MDA-N,> 100 µM
same,TGI,OVCAR-3 ovarian,> 100 µM
same,TGI,UACC-257 melanoma,> 100 µM
same,TGI,OVCAR-5 ovarian,> 100 µM
same,TGI,TK-10 renal,> 100 µM
same,TGI,UO-31 renal,> 100 µM
same,TGI,CCRF-CEM leukemia,> 100 µM
same,TGI,HCT-15 colon,> 100 µM
same,TGI,KM12 colon,> 100 µM
same,TGI,RXF 393 renal,> 100 µM
same,TGI,SK-MEL-2 melanoma,> 100 µM
same,TGI,SN12C renal,> 100 µM
same,TGI,OVCAR-4 ovarian,> 100 µM
same,TGI,PC-3 prostate,> 100 µM
same,TGI,SK-OV-3 ovarian,> 100 µM
same,TGI,BT-549 breast,> 100 µM
same,TGI,HOP-92 NSCLC,> 100 µM
same,TGI,SF-295 CNS,> 100 µM
same,TGI,COLO 205 colon,> 100 µM
same,TGI,SF-539 CNS,> 100 µM
same,TGI,NCI/ADR-RES ovarian,> 100 µM
N#Cc1c(N)nc(Nc2cccc3ccccc23)c(C#N)c1C#N,TGI,NCI-H522 lung,> 10 µM
same,TGI,NCI-H460 lung,> 10 µM
same,TGI,SW-620 colon,> 10 µM
same,TGI,SK-MEL-5 melanoma,> 10 µM
same,TGI,SF-268 CNS,> 10 µM
same,TGI,K-562 leukemia,9.64 µM
same,TGI,MDA-MB-435,> 10 µM
same,TGI,HL-60(TB) leukemia,4.77 µM
same,TGI,HCT-116 colon,> 10 µM
same,TGI,HS 578T breast,8.7 µM
same,TGI,RPMI-8226 leukemia,6.19 µM
same,TGI,SR leukemia,9.29 µM
same,TGI,SNB-19 CNS,> 10 µM
same,TGI,DU-145 prostate,> 10 µM
same,TGI,M14 melanoma,> 10 µM
same,TGI,MCF7 breast,> 10 µM
same,TGI,MDA-MB-231 breast,> 10 µM
same,TGI,HT29 colon,> 10 µM
same,TGI,HOP-62 NSCLC,> 10 µM
same,TGI,CAKI-1 renal,> 10 µM
same,TGI,UACC-62 melanoma,> 10 µM
same,TGI,ACHN renal,> 10 µM
same,TGI,HCC-2998 colon,> 10 µM
same,TGI,LOX IMVI melanoma,4.36 µM
same,TGI,NCI-H23 lung,> 10 µM
same,TGI,MOLT-4 leukemia,9.2 µM
same,TGI,IGROV1 ovarian,> 10 µM
same,TGI,SNB-75 CNS,> 10 µM
same,TGI,U251 CNS,> 10 µM
same,TGI,A549 NSCLC,> 10 µM
same,TGI,OVCAR-8 ovarian,> 10 µM
same,TGI,EKVX NSCLC,> 10 µM
same,TGI,MDA-N,4 µM
same,TGI,OVCAR-3 ovarian,7.57 µM
same,TGI,MALME-3M melanoma,> 10 µM
same,TGI,NCI-H226 lung,> 10 µM
same,TGI,OVCAR-5 ovarian,> 10 µM
same,TGI,TK-10 renal,> 10 µM
same,TGI,UO-31 renal,> 10 µM
same,TGI,CCRF-CEM leukemia,6.05 µM
same,TGI,HCT-15 colon,> 10 µM
same,TGI,KM12 colon,> 10 µM
same,TGI,RXF 393 renal,> 10 µM
same,TGI,SK-MEL-2 melanoma,> 10 µM
same,TGI,SN12C renal,> 10 µM
same,TGI,A498 renal,> 10 µM
same,TGI,OVCAR-4 ovarian,> 10 µM
same,TGI,PC-3 prostate,> 10 µM
same,TGI,SK-OV-3 ovarian,> 10 µM
same,TGI,SK-MEL-28 melanoma,> 10 µM
same,TGI,SF-295 CNS,> 10 µM
same,TGI,COLO 205 colon,> 10 µM
same,TGI,SF-539 CNS,> 10 µM
same,TGI,T-47D breast,> 10 µM
same,TGI,NCI/ADR-RES ovarian,> 10 µM
O=C(O)c1cc(-c2ccc3c(O)ccc(O)c3c2)ccc1O,TGI,786-0 renal,30.2 µM
same,TGI,NCI-H522 lung,36.5 µM
same,TGI,NCI-H460 lung,48.5 µM
same,TGI,SW-620 colon,28.6 µM
same,TGI,SK-MEL-5 melanoma,28.2 µM
same,TGI,SF-268 CNS,82.9 µM
same,TGI,MDA-MB-435,34.4 µM
same,TGI,HL-60(TB) leukemia,> 100 µM
same,TGI,HCT-116 colon,32.6 µM
same,TGI,HS 578T breast,73.5 µM
same,TGI,RPMI-8226 leukemia,> 100 µM
same,TGI,SR leukemia,> 100 µM
same,TGI,SNB-19 CNS,> 100 µM
same,TGI,DU-145 prostate,52.3 µM
same,TGI,M14 melanoma,47.7 µM
same,TGI,MCF7 breast,39.6 µM
same,TGI,MDA-MB-231 breast,39.6 µM
same,TGI,HT29 colon,43.9 µM
same,TGI,HOP-62 NSCLC,98.9 µM
same,TGI,CAKI-1 renal,30.2 µM
same,TGI,UACC-62 melanoma,33.8 µM
same,TGI,ACHN renal,33.4 µM
same,TGI,HCC-2998 colon,32.6 µM
same,TGI,LOX IMVI melanoma,29.8 µM
same,TGI,NCI-H23 lung,64.9 µM
same,TGI,MOLT-4 leukemia,16.3 µM
same,TGI,IGROV1 ovarian,31.9 µM
same,TGI,SNB-75 CNS,60.1 µM
same,TGI,U251 CNS,41.3 µM
same,TGI,A549 NSCLC,> 100 µM
same,TGI,OVCAR-8 ovarian,54.4 µM
same,TGI,EKVX NSCLC,34.7 µM
same,TGI,MDA-N,31.6 µM
same,TGI,OVCAR-3 ovarian,43.5 µM
same,TGI,UACC-257 melanoma,33 µM
same,TGI,MALME-3M melanoma,36.3 µM
same,TGI,NCI-H226 lung,44 µM
same,TGI,OVCAR-5 ovarian,32.3 µM
same,TGI,TK-10 renal,35.6 µM
same,TGI,UO-31 renal,31.3 µM
same,TGI,CCRF-CEM leukemia,5.58 µM
same,TGI,HCT-15 colon,34.4 µM
same,TGI,KM12 colon,43.2 µM
same,TGI,RXF 393 renal,27.9 µM
same,TGI,SK-MEL-2 melanoma,34.3 µM
same,TGI,SN12C renal,31.6 µM
same,TGI,A498 renal,32 µM
same,TGI,OVCAR-4 ovarian,31.2 µM
same,TGI,PC-3 prostate,26.3 µM
same,TGI,SK-MEL-28 melanoma,41.5 µM
same,TGI,SF-295 CNS,33.8 µM
same,TGI,COLO 205 colon,39.4 µM
same,TGI,SF-539 CNS,30.8 µM
same,TGI,T-47D breast,35.3 µM
same,TGI,NCI/ADR-RES ovarian,82.4 µM
